Tested on: methanogenesis in rumen liquor
Experiment: In vitro test for methane production (modified Hohenheim Forage value Test, HFT)
Conditions: reduction in methane produced compared to control, average of two experiments
Experimental: A modified version of the “Hohenheim Forage value Test (HFT)” was used for testing the effect of specific compounds on the rumen functions mimicked by this in-vitro system.
Feed is given into a syringe with a composition of rumen liquor and an appropriate mixture of buffers. The solution is incubated at 39° C. After 8 hours the quantity (and composition) of methane produced is measured and put into a formula for conversion.
The feed stuff is sieved to 1 mm—usually TMR (44% concentrate, 6% hay, 37% maize silage and 13% grass silage)—and weighed exactly into 64 syringes. 4 of these syringes are the substrate controls, which display the gas production without the effect of the tested compounds. 4 other syringes are positive control, in which bromoethane sulfonate has been added to 0.1 mM. When needed, 4 syringes contain a carrier control (if the test compounds need a carrier). The remaining syringes contain the test substances, by groups of 4 syringes.
The components are mixed in a Woulff bottle in following order: • 711 ml water • 0.18 ml trace element solution • 355.5 ml buffer solution • 355.5 ml mass element solution
The completed solution is warmed up to 39° C. followed by the addition of 1.83 ml sodium salt solution and the addition of reduction solution at 36° C. The rumen liquor is added, when the indicator turns colourless.
750 ml of rumen liquor are added to approximately 1,400 ml of medium solution under continued agitation and CO2-gassing.
The diluted rumen fluid (24 ml) is added to the glass syringe. The syringes are then incubated for 8 hours at 39° C. under gentle agitation. After 8 hours, the volume of gas produced is measured, and the percentage of methane in the gas phase is determined by gas chromatography.
The food fermented was artificial TMR (44% concentrate, 6% hay, 37% maize silage and 13% grass silage). The compounds produced as described in examples 3 to 11 were added to the fermentation syringes to a concentration of 1 to 0.1% of dry matter (DM).
The same in vitro assay as described in Example 1 has been performed with a series of molecules, wherein either the amine group has been replaced or, the amine group is not in para position.

[1] = comparative compounds (Table 3), 1% DM
[2] = 0.1% DM, artificial TMR feed, 8 hours at 39° C.
[3] = 0.25% DM, artificial TMR feed, 8 hours at 39° C.
[4] = 0.5% DM, artificial TMR feed, 8 hours at 39° C.
[5] = 1% DM, artificial TMR feed, 8 hours at 39° C.

Cc1ccc([N+](=O)[O-])cc1 [A, reference compound]
effect on methanogenesis (%) [1]: 8%

O=C(O)c1ccc(C(=O)Nc2ccc([N+](=O)[O-])cc2)cc1 [C, reference compound]
effect on methanogenesis (%) [1]: 3%

Nc1ccc([N+](=O)[O-])cc1 [Compound 1, (4-nitro-phenyl)-amine]
effect on methanogenesis (%) [2]: 15%
effect on methanogenesis (%) [3]: 43%
effect on methanogenesis (%) [4]: 88%
effect on methanogenesis (%) [5]: 100%

CNc1ccc([N+](=O)[O-])cc1 [Compound 2, Methyl-(4-nitro-phenyl)-amine]
effect on methanogenesis (%) [2]: 3%
effect on methanogenesis (%) [5]: 96%

CCNc1ccc([N+](=O)[O-])cc1 [Compound 3, Ethyl-(4-nitro-phenyl)-amine]
effect on methanogenesis (%) [2]: 0%
effect on methanogenesis (%) [5]: 97%

CN(C)c1ccc([N+](=O)[O-])cc1 [Compound 4, Dimethyl-(4-nitro-phenyl)-amine]
effect on methanogenesis (%) [2]: 0%
effect on methanogenesis (%) [5]: 94%

CCCNc1ccc([N+](=O)[O-])cc1 [Compound 5, (4-Nitro-phenyl)-propyl-amine]
effect on methanogenesis (%) [2]: 5%
effect on methanogenesis (%) [3]: 20%
effect on methanogenesis (%) [4]: 60%
effect on methanogenesis (%) [5]: 100%

CC(C)Nc1ccc([N+](=O)[O-])cc1 [Compound 6, Isopropyl-(4-nitro-phenyl)-amine]
effect on methanogenesis (%) [2]: 2%
effect on methanogenesis (%) [5]: 99%

O=[N+]([O-])c1ccc(NCCO)cc1 [Compound 7, 2-(4-Nitro-phenylamino)-ethanol]
effect on methanogenesis (%) [2]: 6%
effect on methanogenesis (%) [5]: 100%

O=[N+]([O-])c1ccc(NCCCO)cc1 [Compound 8, 3-(4-Nitro-phenylamino)-propan-1-ol]
effect on methanogenesis (%) [2]: 1%
effect on methanogenesis (%) [5]: 100%

O=[N+]([O-])c1ccc(NCc2ccccn2)cc1 [Compound 9, 4-Nitro-N-(Pyridin-2-ylmethyl)aniline]
effect on methanogenesis (%) [2]: 3%
effect on methanogenesis (%) [5]: 95%

O=C(O)c1ccc(CNc2ccc([N+](=O)[O-])cc2)cc1 [Compound 10, 4-((4-Nitro-phenylamino)-methyl)-benzoic acid]
effect on methanogenesis (%) [3]: 3%
effect on methanogenesis (%) [4]: 21%
effect on methanogenesis (%) [5]: 97%

O=C(O)c1cccc(CNc2ccc([N+](=O)[O-])cc2)c1 [Compound 11, 3-((4-Nitro-phenylamino)-methyl)-benzoic acid]
effect on methanogenesis (%) [2]: 1%
effect on methanogenesis (%) [5]: 88%

Nc1cccc([N+](=O)[O-])c1 [Compound B, 3-Nitro-phenylamine, reference compound]
effect on methanogenesis (%) [1]: 7%

O=C(O)c1ccc(COc2ccc([N+](=O)[O-])cc2)cc1 [Compound D, 4-(4-Nitro-phenoxymethyl)-benzoic acid, reference compound]
effect on methanogenesis (%) [1]: 6%

O=[N+]([O-])c1ccc(N2CCOCC2)cc1 [Compound F, 4-(4-Nitrophenyl)morpholine, reference compound]
effect on methanogenesis (%) [1]: 8%

From US20150064305A1, “USE OF PARA NITRO AMINO DERIVATIVES IN FEED FOR REDUCING METH-ANE EMISSION IN RUMINANTS” (DSM IP ASSETS B.V., priority 2012, published 2015)
